Measurements taken from PubChem BioAssay AID1918991 (Molecular Pharmacology Branch, DTP, NCI, 2023).

Tested on: 186277-243-T-J2-PDC complex spheroid growth
Assay: Anticancer human tumor 186277-243-T-J2-PDC patient-derived colon adenocarcinoma cell line growth inhibition [AhR]
Details: for IC50: curve of first compound; for viability, T/C: stronger effect = lower value
Method in brief: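 Agents were dosed in half-log steps down from roughly clinical Cmax, or from 10 microM where Cmax was unknown, alone and with AhR antagonists. Read-out: percent test/control growth of tumor spheroids containing HUVEC and MSC stromal cells.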
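Also: spheroids exposed to compounds for seven days before the viability read.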
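For viability, T/C in this document: luminescent signal used as a stand-in for viable cell amount; 100% = DMSO vehicle control wells.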

CC(C)c1c(-c2ccccc2)nc2c(C#N)c[nH]n2c1=O + Cc1cncc(-c2nc(NCCc3c[nH]c4ccccc34)c3ncn(C(C)C)c3n2)c1
IC50 (second compound 0.1 µM): > 10 µM
IC50 (second compound 0.316 µM): > 10 µM
IC50 (second compound 1 µM): > 10 µM
IC50 (second compound 3.16 µM): > 10 µM
IC50 (second compound 10 µM): < 0.0316 µM
viability, T/C (second compound 0.1 µM, first compound 0.0316 µM): 127%
viability, T/C (second compound 0.1 µM, first compound 0.1 µM): 105%
viability, T/C (second compound 0.1 µM, first compound 0.316 µM): 101%
viability, T/C (second compound 0.1 µM, first compound 1 µM): 98.3%
viability, T/C (second compound 0.1 µM, first compound 3.16 µM): 95.8%
viability, T/C (second compound 0.1 µM, first compound 10 µM): 96.5%
viability, T/C (second compound 0.316 µM, first compound 0.0316 µM): 102%
viability, T/C (second compound 0.316 µM, first compound 0.1 µM): 99.6%
viability, T/C (second compound 0.316 µM, first compound 0.316 µM): 101%
viability, T/C (second compound 0.316 µM, first compound 1 µM): 98.8%
viability, T/C (second compound 0.316 µM, first compound 3.16 µM): 95%
viability, T/C (second compound 0.316 µM, first compound 10 µM): 108%
viability, T/C (second compound 1 µM, first compound 0.0316 µM): 107%
viability, T/C (second compound 1 µM, first compound 0.1 µM): 101%
viability, T/C (second compound 1 µM, first compound 0.316 µM): 98.5%
viability, T/C (second compound 1 µM, first compound 1 µM): 103%
viability, T/C (second compound 1 µM, first compound 3.16 µM): 94.4%
viability, T/C (second compound 1 µM, first compound 10 µM): 102%
viability, T/C (second compound 3.16 µM, first compound 0.0316 µM): 109%
viability, T/C (second compound 3.16 µM, first compound 0.1 µM): 111%
viability, T/C (second compound 3.16 µM, first compound 0.316 µM): 96.3%
viability, T/C (second compound 3.16 µM, first compound 1 µM): 96.1%
viability, T/C (second compound 3.16 µM, first compound 3.16 µM): 108%
viability, T/C (second compound 3.16 µM, first compound 10 µM): 102%
viability, T/C (second compound 10 µM, first compound 0.0316 µM): 26%
viability, T/C (second compound 10 µM, first compound 0.1 µM): 22.7%
viability, T/C (second compound 10 µM, first compound 0.316 µM): 20.5%
viability, T/C (second compound 10 µM, first compound 1 µM): 25.6%
viability, T/C (second compound 10 µM, first compound 3.16 µM): 23.9%
viability, T/C (second compound 10 µM, first compound 10 µM): 34.4%
